The results in this text go back to ChEMBL document CHEMBL1201862, “PubChem BioAssay data set” (2004).

The nature of assay [1]: inhibitors of Vif binding to APOBEC3G peptide, primary screen, biochemical, TR-FRET, GST-Vif 1-94, biotin-A3G peptide, dose response retest (AID 1117319).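 Also: TR-FRET signal of purified GST-Vif binding a biotinylated A3G peptide; inhibitors lower the FRET signal by blocking Vif and A3G binding.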 It is filed as functional.
In assay [2] the target is T1, Protein skinhead-1 (Caenorhabditis elegans, UniProt P34707).
T1 sequence (P34707 whole entry): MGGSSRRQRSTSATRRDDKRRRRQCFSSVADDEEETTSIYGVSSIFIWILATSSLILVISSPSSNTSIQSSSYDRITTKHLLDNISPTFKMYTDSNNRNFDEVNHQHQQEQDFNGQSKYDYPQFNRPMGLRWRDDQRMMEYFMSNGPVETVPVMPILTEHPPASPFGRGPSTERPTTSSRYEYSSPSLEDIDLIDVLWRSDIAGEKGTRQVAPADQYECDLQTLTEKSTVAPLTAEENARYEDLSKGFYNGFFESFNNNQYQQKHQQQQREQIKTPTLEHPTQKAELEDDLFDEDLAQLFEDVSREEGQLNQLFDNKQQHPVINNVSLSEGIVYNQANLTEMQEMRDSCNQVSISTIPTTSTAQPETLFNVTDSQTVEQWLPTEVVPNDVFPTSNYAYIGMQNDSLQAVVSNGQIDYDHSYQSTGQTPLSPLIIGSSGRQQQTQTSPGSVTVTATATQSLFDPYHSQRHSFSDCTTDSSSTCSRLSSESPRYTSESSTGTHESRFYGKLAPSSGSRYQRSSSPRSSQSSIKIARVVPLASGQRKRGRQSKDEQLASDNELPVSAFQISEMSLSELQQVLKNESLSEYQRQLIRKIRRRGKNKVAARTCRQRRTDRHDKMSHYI
It is filed as functional.

Assay [3] deals with T2, Oxysterols receptor LXR-beta (Homo sapiens, UniProt P55055).
T2 sequence (P55055 whole entry): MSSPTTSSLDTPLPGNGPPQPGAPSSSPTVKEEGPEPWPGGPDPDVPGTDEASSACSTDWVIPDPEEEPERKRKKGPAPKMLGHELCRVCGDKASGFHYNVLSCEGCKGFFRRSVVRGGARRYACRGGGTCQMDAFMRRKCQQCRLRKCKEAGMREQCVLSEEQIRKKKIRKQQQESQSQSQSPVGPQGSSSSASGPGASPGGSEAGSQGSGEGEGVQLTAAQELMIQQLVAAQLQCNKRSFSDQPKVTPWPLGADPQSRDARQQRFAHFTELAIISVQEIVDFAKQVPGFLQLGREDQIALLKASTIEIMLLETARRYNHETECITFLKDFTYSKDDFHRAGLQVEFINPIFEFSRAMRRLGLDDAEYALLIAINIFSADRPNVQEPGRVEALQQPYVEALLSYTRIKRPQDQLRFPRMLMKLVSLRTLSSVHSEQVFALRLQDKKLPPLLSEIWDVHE
It is filed as functional, cell-based.

The subject of assay [4] is HEK293. Put plainly: inhibitors of LMP1-driven NF-kB reporter, dose response, cell-based, HEK293, luciferase, cherry-pick (AID 588343). Conditions: Homo sapiens. It is filed as functional.
For assay [5], the target named is Peroxisome proliferator-activated receptor gamma/Nuclear receptor coactivator 2 (Homo sapiens, UniProt P37231). It is filed as functional.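 Also: agonist potency for raising coactivator recruitment to the receptor.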
Assay [6] concerns the target Peroxisome proliferator-activated receptor gamma/Nuclear receptor coactivator 3 (Homo sapiens, UniProt P37231). It is filed as functional.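 Also: agonist potency for raising coactivator recruitment to the receptor.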
Assay [7] has as its target Peroxisome proliferator-activated receptor gamma/Nuclear receptor coactivator 1 (Homo sapiens, UniProt P37231). The format is functional.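 Also: agonist potency as compounds enhance coactivator SRC-1 recruitment to PPARgamma.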
A short description of assay [8]: THP-1 cell cytotoxicity, dose response, cytotoxicity control for Vif-APOBEC3G degradation inhibitor project, THP-1 cells (AID 1117359). The conditions noted are these: Human immunodeficiency virus 1, THP-1. The format is functional.
Assay [9] has as its system HT-1080. Description: cytotoxicity in HT1080 fibrosarcoma cells, cell-based, fluorescence readout (AID 620). The format is functional. The conditions noted are these: Homo sapiens.
The target in assay [10] is Luciferin 4-monooxygenase (Photinus pyralis, UniProt P08659). Description: Counter Screen for Luciferase-based Assay Positives. [Related pubchem assays: 620, 618, 411 ]. Background: The purpose of a counterscreen is to sort out artefacts and off-target activity.
The subject of assay [11] is Vero. Put plainly: cells. The conditions noted are these: Chlorocebus sabaeus. It is filed as functional.
In assay [12] the target is T3, COUP transcription factor 2 (Homo sapiens, UniProt P24468).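 Also: HEK293 cells transiently cotransfected with COUP-TFII expression vector and reporter; luciferase reporter luminescence driven by COUP-TFII from the pX2-168 reporter plasmid.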
T3 sequence (P24468 whole entry): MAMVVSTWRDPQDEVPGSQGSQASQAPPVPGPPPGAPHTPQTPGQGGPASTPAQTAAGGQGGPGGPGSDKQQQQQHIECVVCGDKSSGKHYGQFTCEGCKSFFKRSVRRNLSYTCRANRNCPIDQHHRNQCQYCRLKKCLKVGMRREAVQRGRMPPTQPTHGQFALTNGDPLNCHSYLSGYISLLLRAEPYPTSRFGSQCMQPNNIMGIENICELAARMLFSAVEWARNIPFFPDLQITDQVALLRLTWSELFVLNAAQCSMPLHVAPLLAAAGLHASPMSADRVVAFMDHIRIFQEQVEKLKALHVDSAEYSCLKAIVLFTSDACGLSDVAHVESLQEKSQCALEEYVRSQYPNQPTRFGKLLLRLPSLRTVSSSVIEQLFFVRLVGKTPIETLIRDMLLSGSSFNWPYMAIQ
Put plainly: Luminescence-based cell-based high throughput dose response assay to identify inhibitors of COUP-TFII (NR2F2). It is filed as functional.

Assay [13] addresses Paired box protein Pax-8 (Homo sapiens, UniProt Q06710). Description: inhibitors of PAX8-driven TPO luciferase reporter, dose response, RMG-I cells, cherry-pick (AID 687027).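 Also: luciferase reporter driven by Pax8 target thyroperoxidase promoter measured by SteadyGlo luminescence.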 The format is functional, cell-based. For orientation: A reporter such as luciferase makes a cellular process visible.
A short description of assay [14]: cytotoxicity in OVCAR8 ovarian cancer cells, dose response, PAX8 project, cell-based, plate reader, dry powder samples (AID 743197). It is filed as functional. Conditions: OVCAR-8.
In assay [15] the target is T4, Tyrosyl-DNA phosphodiesterase 2 (Homo sapiens, UniProt O95551).
T4 sequence (O95551 whole entry): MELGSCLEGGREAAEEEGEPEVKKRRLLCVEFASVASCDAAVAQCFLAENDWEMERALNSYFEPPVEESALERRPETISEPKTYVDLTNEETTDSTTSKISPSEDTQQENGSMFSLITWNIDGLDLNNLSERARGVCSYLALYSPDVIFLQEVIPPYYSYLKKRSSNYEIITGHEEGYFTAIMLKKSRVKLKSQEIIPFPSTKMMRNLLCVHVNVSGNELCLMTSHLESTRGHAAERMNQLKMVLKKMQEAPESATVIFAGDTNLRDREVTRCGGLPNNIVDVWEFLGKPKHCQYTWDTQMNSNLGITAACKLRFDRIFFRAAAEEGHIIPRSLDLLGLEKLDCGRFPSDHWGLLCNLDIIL
Description: human TDP2 enzyme inhibitors, dose response, biochemical, epi absorbance, IC50 (AID 743297).

For assay [16], the target named is T5, Replicative DNA helicase DnaB (Mycobacterium tuberculosis, UniProt P9WMR3).
T5 sequence (P9WMR3 whole entry): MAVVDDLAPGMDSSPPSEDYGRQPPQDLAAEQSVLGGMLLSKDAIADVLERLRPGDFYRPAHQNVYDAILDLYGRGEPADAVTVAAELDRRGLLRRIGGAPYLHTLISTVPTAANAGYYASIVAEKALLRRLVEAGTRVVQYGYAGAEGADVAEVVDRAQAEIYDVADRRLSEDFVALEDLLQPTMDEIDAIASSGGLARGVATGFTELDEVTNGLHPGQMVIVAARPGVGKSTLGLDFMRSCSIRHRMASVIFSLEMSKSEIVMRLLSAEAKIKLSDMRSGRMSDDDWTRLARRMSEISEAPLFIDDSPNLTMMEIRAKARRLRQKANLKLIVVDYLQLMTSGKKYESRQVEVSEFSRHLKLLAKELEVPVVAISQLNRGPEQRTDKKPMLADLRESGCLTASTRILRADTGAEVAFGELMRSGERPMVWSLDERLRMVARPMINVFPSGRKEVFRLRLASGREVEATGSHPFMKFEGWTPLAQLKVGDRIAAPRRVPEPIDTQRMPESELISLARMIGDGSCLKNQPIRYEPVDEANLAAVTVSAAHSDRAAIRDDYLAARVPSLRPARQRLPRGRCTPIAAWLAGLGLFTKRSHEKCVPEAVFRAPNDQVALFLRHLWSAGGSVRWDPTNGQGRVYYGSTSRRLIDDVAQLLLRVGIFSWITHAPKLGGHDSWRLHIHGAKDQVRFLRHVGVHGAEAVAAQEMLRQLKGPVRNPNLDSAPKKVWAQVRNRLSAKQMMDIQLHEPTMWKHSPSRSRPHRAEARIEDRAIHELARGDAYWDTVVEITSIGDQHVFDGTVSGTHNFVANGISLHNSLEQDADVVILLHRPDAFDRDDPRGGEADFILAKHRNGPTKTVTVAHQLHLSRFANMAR
Put plainly: DnaB intein splicing inhibitors, dose response, biochemical, cell-free fluorescence (AID 449749). It is filed as functional.

For assay [17], the target named is T6, Protein RecA (Mycobacterium tuberculosis, UniProt P9WHJ3).
T6 sequence (P9WHJ3 whole entry): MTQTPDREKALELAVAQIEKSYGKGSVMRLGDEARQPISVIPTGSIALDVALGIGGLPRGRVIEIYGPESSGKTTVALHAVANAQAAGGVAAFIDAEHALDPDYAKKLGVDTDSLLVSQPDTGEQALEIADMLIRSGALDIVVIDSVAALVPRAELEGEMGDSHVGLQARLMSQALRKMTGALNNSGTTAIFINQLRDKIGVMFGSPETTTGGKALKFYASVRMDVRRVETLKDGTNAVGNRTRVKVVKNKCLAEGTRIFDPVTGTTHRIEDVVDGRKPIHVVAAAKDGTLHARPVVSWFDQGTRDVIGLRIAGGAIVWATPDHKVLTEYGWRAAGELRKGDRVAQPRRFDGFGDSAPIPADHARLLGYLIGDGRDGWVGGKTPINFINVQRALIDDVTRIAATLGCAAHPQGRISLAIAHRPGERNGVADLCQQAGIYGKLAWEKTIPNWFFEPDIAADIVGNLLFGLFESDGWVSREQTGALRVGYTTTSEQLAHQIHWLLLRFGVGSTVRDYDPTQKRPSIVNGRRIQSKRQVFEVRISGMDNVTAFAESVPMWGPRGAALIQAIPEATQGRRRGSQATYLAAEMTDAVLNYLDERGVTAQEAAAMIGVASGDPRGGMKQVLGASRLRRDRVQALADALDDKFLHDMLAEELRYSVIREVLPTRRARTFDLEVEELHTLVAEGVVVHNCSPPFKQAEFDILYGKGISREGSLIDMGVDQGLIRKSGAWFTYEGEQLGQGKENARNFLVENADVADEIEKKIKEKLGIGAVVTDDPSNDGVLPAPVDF
Put plainly: Fluorescence Cell-Free Homogeneous Dose Retest to Identify Inhibitors of RecA-Intein Splicing Activity. [Related pubchem assays (depositor defined):AID2097, AID2223, AID489010, AID492950]. It is filed as functional.

A short description of assay [18]: P. falciparum Dd2 growth inhibitors, dose response, SYBR Green, cherry-picked samples (AID 1159567). The format is functional, cell-based.

Activity calls are given as the source filed them.

Chain of Peroxisome proliferator-activated receptor gamma/Nuclear receptor coactivator 1 (P37231 whole entry): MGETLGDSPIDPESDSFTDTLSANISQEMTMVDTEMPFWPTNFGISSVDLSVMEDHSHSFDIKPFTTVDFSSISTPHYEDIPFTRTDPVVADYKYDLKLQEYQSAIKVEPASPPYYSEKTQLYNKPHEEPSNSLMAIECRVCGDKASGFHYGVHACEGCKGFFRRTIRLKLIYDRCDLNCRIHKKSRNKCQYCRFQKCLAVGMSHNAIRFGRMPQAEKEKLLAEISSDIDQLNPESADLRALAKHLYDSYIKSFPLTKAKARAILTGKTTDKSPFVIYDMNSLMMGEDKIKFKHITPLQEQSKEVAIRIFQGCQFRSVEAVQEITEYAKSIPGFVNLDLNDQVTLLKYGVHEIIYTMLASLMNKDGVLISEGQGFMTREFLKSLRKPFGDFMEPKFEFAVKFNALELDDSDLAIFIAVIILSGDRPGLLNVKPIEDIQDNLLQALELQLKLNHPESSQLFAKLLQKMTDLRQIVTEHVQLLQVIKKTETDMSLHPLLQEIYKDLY
Chain of Peroxisome proliferator-activated receptor gamma/Nuclear receptor coactivator 1 (Q15788 whole entry, further chain): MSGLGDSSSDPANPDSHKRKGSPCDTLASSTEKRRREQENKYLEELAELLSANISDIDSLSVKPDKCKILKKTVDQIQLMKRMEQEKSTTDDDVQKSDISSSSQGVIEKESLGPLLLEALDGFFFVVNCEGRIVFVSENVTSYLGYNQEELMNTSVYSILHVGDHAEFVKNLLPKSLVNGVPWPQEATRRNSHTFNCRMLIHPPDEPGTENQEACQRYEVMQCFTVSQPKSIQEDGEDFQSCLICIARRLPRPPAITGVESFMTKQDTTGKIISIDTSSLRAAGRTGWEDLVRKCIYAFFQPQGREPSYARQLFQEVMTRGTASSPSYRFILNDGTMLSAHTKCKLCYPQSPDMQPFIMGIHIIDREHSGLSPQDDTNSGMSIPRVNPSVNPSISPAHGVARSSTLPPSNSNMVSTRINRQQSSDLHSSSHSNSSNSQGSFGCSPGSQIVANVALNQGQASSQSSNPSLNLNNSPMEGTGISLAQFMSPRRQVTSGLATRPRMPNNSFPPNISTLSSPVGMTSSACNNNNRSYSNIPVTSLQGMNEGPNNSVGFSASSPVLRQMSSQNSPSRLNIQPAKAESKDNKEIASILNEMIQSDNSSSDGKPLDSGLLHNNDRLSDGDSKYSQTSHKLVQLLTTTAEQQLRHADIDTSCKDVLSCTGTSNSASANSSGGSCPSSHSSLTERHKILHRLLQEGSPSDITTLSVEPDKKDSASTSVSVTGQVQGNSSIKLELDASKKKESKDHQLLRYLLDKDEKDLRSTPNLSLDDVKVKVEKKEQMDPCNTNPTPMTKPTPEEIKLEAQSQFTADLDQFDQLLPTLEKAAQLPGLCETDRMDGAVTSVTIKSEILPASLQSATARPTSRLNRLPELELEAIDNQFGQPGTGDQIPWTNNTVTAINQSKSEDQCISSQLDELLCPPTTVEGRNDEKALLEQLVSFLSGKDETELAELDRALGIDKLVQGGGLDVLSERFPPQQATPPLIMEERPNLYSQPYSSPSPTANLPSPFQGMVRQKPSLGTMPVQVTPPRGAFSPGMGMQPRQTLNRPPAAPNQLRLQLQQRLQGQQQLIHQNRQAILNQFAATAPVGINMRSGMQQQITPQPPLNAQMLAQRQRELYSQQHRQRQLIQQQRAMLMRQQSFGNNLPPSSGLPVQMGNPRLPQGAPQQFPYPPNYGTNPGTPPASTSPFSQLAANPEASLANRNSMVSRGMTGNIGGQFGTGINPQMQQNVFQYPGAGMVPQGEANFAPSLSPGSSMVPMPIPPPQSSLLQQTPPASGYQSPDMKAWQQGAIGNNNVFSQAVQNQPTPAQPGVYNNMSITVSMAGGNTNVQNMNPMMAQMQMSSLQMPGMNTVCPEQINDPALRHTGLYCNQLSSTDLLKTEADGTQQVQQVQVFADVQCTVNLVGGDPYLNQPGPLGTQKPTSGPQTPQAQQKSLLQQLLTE
Chain of Peroxisome proliferator-activated receptor gamma/Nuclear receptor coactivator 2 (P37231 whole entry): as the sequence (P37231 whole entry) above
Chain of Peroxisome proliferator-activated receptor gamma/Nuclear receptor coactivator 2 (Q15596 whole entry, further chain): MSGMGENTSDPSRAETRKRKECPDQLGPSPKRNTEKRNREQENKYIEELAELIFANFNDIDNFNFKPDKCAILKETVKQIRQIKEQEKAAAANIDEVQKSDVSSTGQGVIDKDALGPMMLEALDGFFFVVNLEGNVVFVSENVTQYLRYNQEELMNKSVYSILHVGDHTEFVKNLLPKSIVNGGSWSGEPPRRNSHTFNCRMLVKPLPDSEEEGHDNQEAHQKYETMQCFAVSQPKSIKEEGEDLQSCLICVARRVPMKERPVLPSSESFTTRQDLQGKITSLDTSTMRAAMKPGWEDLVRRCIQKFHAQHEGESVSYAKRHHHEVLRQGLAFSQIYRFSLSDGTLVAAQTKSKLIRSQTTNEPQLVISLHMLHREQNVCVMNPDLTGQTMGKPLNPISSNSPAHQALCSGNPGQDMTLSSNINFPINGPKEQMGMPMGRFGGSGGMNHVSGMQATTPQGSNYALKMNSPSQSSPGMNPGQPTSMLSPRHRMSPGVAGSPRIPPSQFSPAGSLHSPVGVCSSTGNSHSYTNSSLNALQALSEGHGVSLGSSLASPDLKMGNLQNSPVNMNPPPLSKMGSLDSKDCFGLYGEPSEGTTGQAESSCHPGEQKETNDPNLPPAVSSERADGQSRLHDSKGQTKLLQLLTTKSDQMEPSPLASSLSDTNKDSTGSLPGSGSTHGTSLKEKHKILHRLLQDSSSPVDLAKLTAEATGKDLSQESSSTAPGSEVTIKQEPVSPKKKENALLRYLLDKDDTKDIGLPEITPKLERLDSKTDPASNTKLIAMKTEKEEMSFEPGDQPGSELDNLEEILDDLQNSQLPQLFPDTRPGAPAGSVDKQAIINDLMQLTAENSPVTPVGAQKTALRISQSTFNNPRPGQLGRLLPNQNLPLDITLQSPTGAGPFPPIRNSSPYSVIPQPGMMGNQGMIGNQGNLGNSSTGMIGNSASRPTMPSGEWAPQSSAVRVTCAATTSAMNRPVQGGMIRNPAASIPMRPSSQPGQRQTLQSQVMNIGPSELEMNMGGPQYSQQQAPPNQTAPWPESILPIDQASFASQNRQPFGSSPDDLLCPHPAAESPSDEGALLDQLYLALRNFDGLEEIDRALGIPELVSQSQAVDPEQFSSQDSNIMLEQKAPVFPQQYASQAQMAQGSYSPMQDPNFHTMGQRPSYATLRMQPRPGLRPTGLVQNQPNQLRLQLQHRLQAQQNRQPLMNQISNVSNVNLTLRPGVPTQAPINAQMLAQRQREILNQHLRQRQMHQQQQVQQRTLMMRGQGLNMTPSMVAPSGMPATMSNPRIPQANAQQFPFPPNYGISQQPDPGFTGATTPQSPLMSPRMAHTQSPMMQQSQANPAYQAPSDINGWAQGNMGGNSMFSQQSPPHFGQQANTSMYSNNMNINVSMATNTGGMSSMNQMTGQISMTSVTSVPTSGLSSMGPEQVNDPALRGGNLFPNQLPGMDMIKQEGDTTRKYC
Chain of Luciferin 4-monooxygenase (P08659 whole entry): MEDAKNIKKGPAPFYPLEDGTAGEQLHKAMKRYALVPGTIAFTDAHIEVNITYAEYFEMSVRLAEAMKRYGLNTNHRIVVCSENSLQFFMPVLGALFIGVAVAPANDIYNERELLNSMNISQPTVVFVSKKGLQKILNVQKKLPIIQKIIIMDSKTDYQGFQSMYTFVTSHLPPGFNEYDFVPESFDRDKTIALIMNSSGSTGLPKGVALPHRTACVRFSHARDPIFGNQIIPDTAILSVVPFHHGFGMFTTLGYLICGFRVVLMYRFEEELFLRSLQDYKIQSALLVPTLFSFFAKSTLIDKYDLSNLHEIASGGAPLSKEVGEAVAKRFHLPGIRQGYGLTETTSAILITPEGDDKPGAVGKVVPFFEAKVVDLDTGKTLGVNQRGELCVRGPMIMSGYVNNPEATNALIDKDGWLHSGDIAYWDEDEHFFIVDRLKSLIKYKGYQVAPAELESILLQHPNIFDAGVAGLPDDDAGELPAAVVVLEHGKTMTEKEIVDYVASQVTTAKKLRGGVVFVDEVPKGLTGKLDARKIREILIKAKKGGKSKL
Chain of Paired box protein Pax-8 (Q06710 whole entry): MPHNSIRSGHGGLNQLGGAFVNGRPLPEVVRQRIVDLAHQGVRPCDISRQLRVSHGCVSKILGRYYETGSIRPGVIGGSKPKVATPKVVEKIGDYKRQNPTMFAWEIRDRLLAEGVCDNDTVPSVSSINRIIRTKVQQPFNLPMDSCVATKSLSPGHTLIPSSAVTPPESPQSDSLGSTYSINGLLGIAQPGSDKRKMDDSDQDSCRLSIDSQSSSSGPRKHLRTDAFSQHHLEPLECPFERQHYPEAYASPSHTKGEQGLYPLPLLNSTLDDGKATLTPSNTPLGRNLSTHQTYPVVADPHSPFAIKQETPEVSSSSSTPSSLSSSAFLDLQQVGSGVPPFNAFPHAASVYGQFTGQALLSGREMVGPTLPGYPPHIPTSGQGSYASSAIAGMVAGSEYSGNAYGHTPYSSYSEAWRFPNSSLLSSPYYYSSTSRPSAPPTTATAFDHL

Regarding `COc1ccccc1C(=O)Nc1ccc(-c2nnc(SCC(=O)O)n2C)cc1`, the IC50 (as a rule, the concentration needed to halve the response being measured) in assay [1] was > 100 µM (active).

As for `FC(F)(F)c1cc(Cl)c2nc(-c3ccccc3)cn2c1`, the IC50 in assay [2] is > 100 µM (inactive). The EC50 – broadly, the concentration that produces a half-maximal response – in assay [3] is > 67.5 µM (inactive).

For the compound `CCc1cc(C(=O)Nc2ncccc2O)sc1C`, the AC50 (as a rule, the concentration giving half of the maximal activity seen) in assay [4] is 4.64 µM (active). In assay [3], the EC50 is > 67.5 µM (inactive).

For `O=C1OCCC1Sc1nnc(-c2ccc(Br)cc2)o1` (centres undefined), the EC50 is recorded as 75.3 µM (not active) in assay [5], > 79.4 µM (not active) in assay [6] and > 79.4 µM (not active) in [7].

As to `Cc1c(C=O)c2ccccc2n1Cc1ccc(F)cc1`, the CC50 (usually the concentration at which the toxic effect on the cells reaches its halfway point) in assay [8] was > 40 µM (active).

In the case of `CC(=O)Nc1ccc2oc(-c3cc(F)c(F)cc3Cl)nc2c1`, the EC50 in [9] is > 50 µM (not active); in assay [10], 16.2 µM (active).

Take `O=C(c1ccccc1)c1cnc(-c2ccc(Cl)cc2)s1`: the results for the EC50 in assay [5], in [6] and in [7] were 11.9 µM (not active), 21.4 µM (not active) and 14.4 µM (not active), respectively.

Consider `CCn1c(SCC(=O)Nc2ccccc2C)nnc1-c1ccccc1O`, for which the EC50 in assay [9] was > 50 µM (not active); in [10], > 100 µM (not active).

With `COc1ccc(F)cc1S(=O)(=O)Nc1cc2c3c(c1)CC(=O)N3CCC2`, in [8], the CC50 is > 40 µM (active).

On to `Cc1n[nH]c(C(F)(F)F)c1N=NN1CCOCC1`, for which the CC50 in assay [11] is 6.78 µM (active). In assay [12], the IC50 is 15.5 µM (inactive).

Regarding `CCS(=O)(=O)N1CCC(C(=O)NCc2ccccn2)CC1`, the IC50 in [1] is > 100 µM (active).

`CC(C)CNc1ncnc2c1ncn2[C@H]1CN(Cc2ccc(-c3ccccc3)cc2)C[C@@H](CO)O1`: in assay [12], the IC50 is 9.84 µM (active).

With `COc1ccccc1NC(=O)COC(=O)c1c(NC(C)=O)sc(C)c1C`, the CC50 in [8] is > 40 µM (active).

`COc1ccc(CN(C)C[C@@H]2OCCCC[C@H](C)Oc3ccc(NC(=O)Nc4cccc5ccccc45)cc3C(=O)N([C@H](C)CO)C[C@H]2C)cc1`: the AC50 was 69.6 µM (active) in assay [13] and > 70 µM (inactive) in [14].

For the compound `COc1ccccc1/C=N\N=C(\N)c1ccccn1`, the EC50 in assay [3] was > 67.6 µM (inactive).

Consider `Oc1ccc(/N=C/c2sc3ccccc3c2Cl)cc1`, for which, in assay [15], the IC50 was > 128 µM (inactive). For the same compound, the half-maximal activity concentration (AC50) in assay [16] is 137 µM (active). For the same compound, the EC50 in [17] is > 380 µM (inactive).

As to `COc1ccc(C#Cc2ccc([C@H]3[C@@H](CO)N4CCCCN(C(=O)Nc5ccccc5F)C[C@@H]34)cc2)cc1`, the AC50 in assay [18] is 5.66 µM (active).
